These are literature values, as cited in patent publication US5001113A, “Di- or tripeptide renin inhibitors containing lactam conformational restriction in ACHPA” (Merck & Co., Inc., priority 1990, dated 1991).

Where a SMILES comes first, the peptide text is derived from it. [ ]: non-standard residue; d: D form. The star is where a group is joined. Sta = CC(C)C[C@H](N)[C@@H](O)CC(=O)O; Isovaleryl = CC(C)CC(=O)*

The subject of the data set is hog renin. To be noted: after the injection of hog renin into nephrectomized rats.

For the compound `CC(C)CC(=O)N[C@H](C(=O)N[C@H](C(=O)N[C@@H](CC(C)C)[C@@H](O)CC(=O)N[C@@H](C)C(=O)N[C@@H](CC(C)C)[C@@H](O)CC(=O)O)C(C)C)C(C)C` [pepstatin] (Isovaleryl-VV[Sta]A[Sta]-OH), the “blood pressure in vivo” value is reported as “reduces blood pressure”.
